Data published in patent publication US8778964B2, “Hydroxy-substituted imidazo[1,2-a]-pyridinecarboxamides and their use” (Bayer Pharma Aktiengesellschaft, priority 2012, dated 2014).
Counter-ions that a name gives are not always drawn.

System: recombinant guanylate cyclase reporter cell line
Assay: Action on recombinant guanylate cyclase reporter cell line (MEC)
Format: cell-based
Settings: in some cases mean values obtained from individual determinations
Method in brief: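 Cell-based reporter assay with recombinant guanylate cyclase expressed in a reporter cell line, per a published method. Activity reported as minimal effective concentration (MEC), in some cases as the mean of individual determinations.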

SMILES | minimal effective concentration [µM]
CCCC[C@H](CO)NC(=O)c1c(C)nc2c(OCc3c(F)cccc3F)cc(N3CCOCC3)cn12 [Example 63, 8-[(2,6-difluorobenzyl)oxy]-N-[(2R)-1-hydroxyhexan-2-yl]-2-methyl-6-(morpholin-4-yl)imidazo[1,2-a]pyridine-3-carboxamide] | 3
Cc1nc2c(OCc3c(F)cccc3F)cccn2c1C(=O)NCC(O)COc1ccc(F)cc1 (stereo not drawn) [Example 136, 8-[(2,6-difluorobenzyl)oxy]-N-[3-(4-fluorophenoxy)-2-hydroxypropyl]-2-methylimidzao[1,2-a]pyridine-3-carboxamide] | 3
C[C@@H](CO)NC(=O)c1c(C(F)(F)F)nc2c(OCC3CCCCC3)cccn12 [Example 56, 8-(cyclohexylmethoxy)-N-[(2S)-1-hydroxypropan-2-yl]-2-(trifluoromethyl)imidazo[1,2-a]pyridine-3-carboxamide] | 1
Cc1cc(OCCC(C(F)(F)F)C(F)(F)F)c2nc(C)c(C(=O)NCC(O)c3ccc(Cl)cc3)n2c1 (racemic) [Example 175, rac-N-[2-(4-chlorophenyl)-2-hydroxyethyl]-2,6-dimethyl-8-[4,4,4-trifluoro-3-(trifluoromethyl)butoxy]imidazo[1,2-a]pyridine-3-carboxamide] | 3
CCC(O)CNC(=O)c1c(C)nc2c(OCc3c(F)cccc3F)cccn12 (racemic) [Example 30, (rac)-8-[(2,6-difluorobenzyl)oxy]-N-(2-hydroxybutyl)-2-methylimidazo[1,2-a]pyridine-3-carboxamide] | 0.3
Cc1nc2c(OCc3c(F)cccc3F)cccn2c1C(=O)NC(CCCC(F)(F)F)C(C)(C)O (racemic) [Example 150, rac-8-[(2,6-difluorobenzyl)oxy]-2-methyl-N-(7,7,7-trifluoro-2-hydroxy-2-methylheptan-3-yl)imidazo[1,2-a]pyridine-3-carboxamide] | 0.03
Cc1nc2c(OCc3c(F)cccc3F)cccn2c1C(=O)NC(CO)C(F)(F)F (racemic) [Example 110, rac-8-[(2,6-Difluorobenzyl)oxy]-2-methyl-N-(1,1,1-trifluoro-3-hydroxypropan-2-yl)imidazo[1,2-a]pyridine-3-carboxamide] | 0.3
Cc1cc(OCCC(C(F)(F)F)C(F)(F)F)c2nc(C)c(C(=O)NC3CCCC3O)n2c1 (stereo not drawn) [Example 173, N-(2-hydroxycyclopentyl)-2,6-dimethyl-8-[4,4,4-trifluoro-3-(trifluoromethyl)butoxy]imidazo[1,2-a]pyridine-3-carboxamide] | 3
Cc1nc2c(OCc3c(F)cccc3F)cccn2c1C(=O)N[C@@H](CO)C(C)(C)C [Example 35, 8-[(2,6-difluorobenzyl)oxy]-N-[(2R)-1-hydroxy-3,3-dimethylbutan-2-yl]-2-methylimidazo[1,2-a]-pyridine-3-carboxamide] | 0.3
Cc1nc2c(OCc3c(F)cccc3F)cccn2c1C(=O)NC(CO)CC(F)(F)F (racemic) [Example 113, rac-8-[(2,6-Difluorobenzyl)oxy]-2-methyl-N-(4,4,4-trifluoro-1-hydroxybutan-2-yl)imidazo[1,2-a]-pyridine-3-carboxamide] | 0.03
Cc1nc2c(OCC3CCCCC3)cccn2c1C(=O)NC(C)(C)C(C)O (stereo not drawn) [Example 87, 8-(cyclohexylmethoxy)-N-(3-hydroxy-2-methylbutan-2-yl)-2-methylimidazo[1,2-a]pyridine-3-carboxamide] | 1
Cc1nc2c(OCc3c(F)cccc3F)cccn2c1C(=O)N[C@@H](CO)CC[C@@H](O)C(F)(F)F [Example 135, 8-[(2,6-difluorobenzyl)oxy]-2-methyl-N-[(2R, 5R)-6,6,6-trifluoro-1,5-dihydroxyhexan-2-yl]imidazo[1,2-a]pyridine-3-carboxamide trifluoroacetate (1:1)] | 0.1
Cc1nc2c(OCc3c(F)cccc3F)cccn2c1C(=O)NCCC1(O)CCCC1 [Example 117, 8-[(2,6-difluorobenzyl)oxy]-N-[2-(1-hydroxycyclopentyl)ethyl]-2-methylimidazo[1,2-a]pyridine-3-carboxamide] | 0.03
CCCC[C@H](CO)NC(=O)c1c(C)nc2c(OCc3c(F)cccc3F)cccn12 [Example 1, 8-[(2,6-Difluorobenzyl)oxy]-N-[(2R)-1-hydroxyhexan-2-yl]-2-methylimidazo[1,2-a]pyridine-3-carboxamide] | 0.05
CCCC[C@H](CO)NC(=O)c1c(C)nc2c(OCc3cccc4c3OC(F)(F)O4)cccn12 [Example 12, 8-[(2,2-difluoro-1,3-benzodioxol-4-yl)methoxy]-N-[(2R)-1-hydroxyhexan-2-yl]-2-methylimidazo[1,2-a]-pyridine-3-carboxamide] | 3
CC[C@H](CO)NC(=O)c1c(C)nc2c(OCc3c(F)cccc3F)cccn12 [Example 43, 8-[(2,6-Difluorobenzyl)oxy]-N-[(2R)-1-hydroxybutan-2-yl]-2-methylimidazo[1,2-a]pyridine-3-carboxamide] | 0.16
Cc1nc2c(OCc3c(F)cccc3F)cccn2c1C(=O)N[C@@H]1CCC[C@@H]1O [Example 37, 8-[(2,6-difluorobenzyl)oxy]-N-[(1R,2S)-2-hydroxycyclopentyl]-2-methylimidazo[1,2-a]-pyridine-3-carboxamide] | 0.3

SMILES | minimal effective concentration [µM]
Cc1nc2c(OCc3c(F)cccc3F)cccn2c1C(=O)NCCCCO [Example 23, 8-[(2,6-difluorobenzyl)oxy]-N-(4-hydroxybutyl)-2-methylimidazo[1,2-a]pyridine-3-carboxamide] | 0.3
CCCC[C@H](CO)NC(=O)c1cnc2c(OCc3c(F)cccc3F)cccn12 [Example 62, 8-[(2,6-difluorobenzyl)oxy]-N-[(2R)-1-hydroxyhexan-2-yl]imidazo[1,2-a]pyridine-3-carboxamide] | 0.3
CCC(C)[C@H](CO)NC(=O)c1c(C)nc2c(OCC3CCCCC3)cccn12 (stereo partly drawn) [Example 96, 8-(cyclohexylmethoxy)-N-[(2R)-1-hydroxy-3-methylpentan-2-yl]-2-methylimidazo[1,2-a]pyridine-3-carboxamide] | 3
Cc1nc2c(OCc3c(F)cccc3F)cccn2c1C(=O)N[C@@H](CO)Cc1ccccc1 [Example 38, 8-[(2,6-difluorobenzyl)oxy]-N-[(2R)-1-hydroxy-3-phenylpropan-2-yl]-2-methylimidazo[1,2-a]-pyridine-3-carboxamide] | 0.3
CC[C@H](CO)NC(=O)c1c(C)nc2c(OCc3cccc(F)c3F)cccn12 [Example 44, 8-[(2,3-difluorobenzyl)oxy]-N-[(2R)-1-hydroxybutan-2-yl]-2-methylimidazo[1,2-a]-pyridine-3-carboxamide] | 0.3
CCOCC(CO)NC(=O)c1c(C)nc2c(OCc3c(F)cccc3F)cccn12 (racemic) [Example 160, rac-8-[(2,6-Difluorobenzyl)oxy]-N-(1-ethoxy-3-hydroxypropan-2-yl)-2-methylimidazo[1,2-a]-pyridine-3-carboxamide] | 0.3
Cc1nc2c(OCc3c(F)cccc3F)cccn2c1C(=O)NC(C)(C)CO [Example 34, 8-[(2,6-difluorobenzyl)oxy]-N-(1-hydroxy-2-methylpropan-2-yl)-2-methylimidazo[1,2-a]-pyridine-3-carboxamide] | 0.3
CCCC[C@H](CO)NC(=O)c1c(C)nc2c(OCc3ccccc3Cl)cccn12 [Example 4, 8-[(2-chlorobenzyl)oxy]-N-[(2R)-1-hydroxyhexan-2-yl]-2-methylimidazo[1,2-a]pyridine-3-carboxamide] | 0.1
CCCC[C@H](CO)NC(=O)c1c(C)nc2c(OCc3ccccc3)cccn12 [Example 16, 8-(Benzyloxy)-N-[(2R)-1-hydroxyhexan-2-yl]-2-methylimidazo[1,2-a]pyridine-3-carboxamide] | 1
CCCC[C@H](CO)NC(=O)c1c(C)nc2c(OCc3c(F)cccc3F)cc(C#N)cn12 [Example 157, 6-Cyano-8-[(2,6-difluorobenzyl)oxy]-N-[(2R)-1-hydroxyhexan-2-yl]-2-methylimidazo[1,2-a]-pyridine-3-carboxamide] | 0.065
CCCOCC(CO)NC(=O)c1c(C)nc2c(OCc3c(F)cccc3F)cccn12 (racemic) [Example 162, rac-8-[(2,6-Difluorobenzyl)oxy]-N-(1-hydroxy-3-propoxypropan-2-yl)-2-methylimidazo[1,2-a]-pyridine-3-carboxamide] | 0.3
Cc1nc2c(OCC3CCCCC3)cccn2c1C(=O)N[C@H]1CCC[C@@H]1O (racemic) [Example 71, (rac)-8-(cyclohexylmethoxy)-N-[trans-2-hydroxycyclopentyl]-2-methylimidazo[1,2-a]-pyridine-3-carboxamide] | 0.1
CCCC[C@H](CO)NC(=O)c1c(C)nc2c(OCc3c(F)cc(F)cc3F)cccn12 [Example 15, N-[(2R)-1-Hydroxyhexan-2-yl]-2-methyl-8-[(2,4,6-trifluorobenzyl)oxy]imidazo[1,2-a]pyridine-3-carboxamide] | 0.1
C[C@@H](CO)NC(=O)c1cnc2c(OCC3CCCCC3)cccn12 [Example 59, 8-(cyclohexylmethoxy)-N-[(2S)-1-hydroxypropan-2-yl]imidazo[1,2-a]pyridine-3-carboxamide] | 3
Cc1nc2c(OCC3CCCCC3)cccn2c1C(=O)NC(C)CO (stereo not drawn) [Example 84, 8-(cyclohexylmethoxy)-N-(1-hydroxypropan-2-yl)-2-methylimidazo[1,2-a]pyridine-3-carboxamide] | 0.3
Cc1nc2c(OCc3c(F)cccc3F)cccn2c1C(=O)N[C@H]1CCC[C@@H]1O [Example 19, 8-[(2,6-difluorobenzyl)oxy]-N-[(1S,2S)-2-hydroxycyclopentyl]-2-methylimidazo[1,2-a]-pyridine-3-carboxamide] | 1
